Results taken from ChEMBL document CHEMBL1128839, “Aminodiol HIV protease inhibitors. 2. 1,1-Dimethyl-2-hydroxyethyl carbamate derivatives with enhanced potency” (Bioorg Med Chem Lett, 1995).

Experiments:
CCRF-CEM [1] = experiment: Compound was evaluated for its ability to inhibit the replication of HIV-1 virus by 50% in cell culture using XTT endpoint; assay type: functional; details: Homo sapiens, read-out: ED50 (the source's name)
CCRF-CEM [2] = experiment: Cytotoxicity against CEM cells; assay type: functional, Homo sapiens
[3] = target: Human immunodeficiency virus type 1 protease (Human immunodeficiency virus 1, UniProt Q72874); experiment: Inhibition of HIV protease cleavage of V-S-Q-N-(b-naphthylalanine)-P-I-V
[4] = Half-life period by analytical HPLC at pH 7.2; assay type: ADME
CCRF-CEM [5] = experiment: Compound was evaluated for its ability to inhibit the replication of HIV-2 virus (strain CBL-20) by 50% in cell culture using XTT endpoint; assay type: functional; details: Homo sapiens, read-out: ED50 (the source's name)

Structure (SMILES) | EC50 (CCRF-CEM [1]) | Cytotoxicity (CCRF-CEM [2]) | IC50 [3] | half-life [4] | EC50 (CCRF-CEM [5])
C[C@@H](O)C(C)(C)OC(=O)N[C@@H](Cc1ccccc1)[C@H](O)CNC[C@@H](O)[C@H](Cc1ccccc1)NC(=O)OC(C)(C)C | 0.32 µM | >10 µM | 0.16 µM | – | –
CC(C)(C)OC(=O)N[C@@H](Cc1ccccc1)[C@H](O)CNC[C@@H](O)[C@@H](N)Cc1ccccc1 | – | – | > 10 µM | – | –
CC(C)(C)OC(=O)N[C@@H](Cc1ccccc1)[C@H](O)CNC[C@@H](O)[C@H](Cc1ccccc1)NC(=O)OC(C)(C)CN | – | – | > 10 µM | – | –
CC(C)(C)OC(=O)N[C@@H](Cc1ccccc1)[C@H](O)CNC[C@@H](O)[C@H](Cc1ccccc1)NC(=O)OC(C)(CO)CO | – | >10 µM | 0.2 µM | 18 h | –
CC(C)(C)OC(=O)N[C@@H](Cc1ccccc1)[C@H](O)CNC[C@@H](O)[C@H](Cc1ccccc1)NC(=O)OCCO | 0.28 µM | >10 µM | 0.23 µM | – | –
CC(C)(C)OC(=O)N[C@@H](Cc1ccccc1)[C@H](O)CNC[C@@H](O)[C@H](Cc1ccccc1)NC(=O)OC(C)(C)CO | 0.038 µM | >=10000 nM | 0.035 µM | – | 0.103 µM
C[C@H](O)C(C)(C)OC(=O)N[C@@H](Cc1ccccc1)[C@H](O)CNC[C@@H](O)[C@H](Cc1ccccc1)NC(=O)OC(C)(C)C | 0.035 µM | >10 µM | 0.105 µM | – | –
COCC(C)(C)OC(=O)N[C@@H](Cc1ccccc1)[C@H](O)CNC[C@@H](O)[C@H](Cc1ccccc1)NC(=O)OC(C)(C)C | 1.03 µM | >=10000 nM | 0.42 µM | – | –
CC(C)(C)OC(=O)N[C@@H](Cc1ccccc1)[C@H](O)CNC[C@@H](O)[C@H](Cc1ccccc1)NC(=O)OC(C)(C)CNC=O | 0.61 µM | >=10000 nM | 1.5 µM | – | –
CC(C)(C)OC(=O)N[C@@H](Cc1ccccc1)[C@H](O)CNC[C@@H](O)[C@H](Cc1ccccc1)NC(=O)OC(C)(C)CCCO | 0.65 µM | >=10000 nM | 1.1 µM | – | –
CC(C)(C)OC(=O)N[C@@H](Cc1ccccc1)[C@H](O)CNC[C@@H](O)[C@H](Cc1ccccc1)NC(=O)OC(C)(C)CCO | 0.175 µM | >=10000 nM | 0.2 µM | – | –
CC(C)(CO)OC(=O)N[C@@H](Cc1ccccc1)[C@H](O)CNC[C@@H](O)[C@H](Cc1ccccc1)NC(=O)OC(C)(C)CO | 0.843 µM | >10 µM | 0.016 µM | – | –
CC(C)(C)OC(=O)N[C@@H](Cc1ccccc1)[C@H](O)CNC[C@@H](O)[C@H](Cc1ccccc1)NC(=O)OC1(CO)CCC1 | 0.155 µM | >10 µM | 0.1 µM | – | –
CC(C)(C)OC(=O)N[C@@H](Cc1ccccc1)[C@H](O)CNC[C@@H](O)[C@H](Cc1ccccc1)NC(=O)OC(C)(C)C | 0.08 µM | >=10000 nM | – | – | –
